In ChEMBL document CHEMBL1140825, “Cy3-3-acylcholine: a fluorescent analogue of acetylcholine for single molecule detection” (Bioorg Med Chem Lett, 2008) one finds Activity and T1/2 data, which are given here for one compound.

Experiment [1] relates to Tetronarce californica. Nature of the experiment: Binding affinity to Torpedo californica nACh receptor in reconstituted diphytanoylphosphatidylcholine/cholesterol vesicles.
Experiment [2] concerns the target Neuronal acetylcholine receptor subunit alpha-4 (Gallus gallus) (UniProt P09482). In words: Agonist activity at chicken nACh receptor alpha4beta2 expressed in Xenopus laevis oocytes assessed as time taken for current to decay from its peak to 50% at 100 nM by two-electrode voltage clamp assay. Type of experiment: functional, cell-based. As to conditions: Oocyte. For orientation: In two-electrode clamp one electrode senses voltage and the other passes current.

The subject of experiment [3] is Tetronarce californica. In words: Displacement of non fluorescent acetylcholine from torpedo californica nACh receptor.

The source made the active and inactive calls. The calls are words filed in the database; no cut-off is given here.

Chain of Neuronal acetylcholine receptor subunit alpha-4 (Gallus gallus) (P09482 whole entry): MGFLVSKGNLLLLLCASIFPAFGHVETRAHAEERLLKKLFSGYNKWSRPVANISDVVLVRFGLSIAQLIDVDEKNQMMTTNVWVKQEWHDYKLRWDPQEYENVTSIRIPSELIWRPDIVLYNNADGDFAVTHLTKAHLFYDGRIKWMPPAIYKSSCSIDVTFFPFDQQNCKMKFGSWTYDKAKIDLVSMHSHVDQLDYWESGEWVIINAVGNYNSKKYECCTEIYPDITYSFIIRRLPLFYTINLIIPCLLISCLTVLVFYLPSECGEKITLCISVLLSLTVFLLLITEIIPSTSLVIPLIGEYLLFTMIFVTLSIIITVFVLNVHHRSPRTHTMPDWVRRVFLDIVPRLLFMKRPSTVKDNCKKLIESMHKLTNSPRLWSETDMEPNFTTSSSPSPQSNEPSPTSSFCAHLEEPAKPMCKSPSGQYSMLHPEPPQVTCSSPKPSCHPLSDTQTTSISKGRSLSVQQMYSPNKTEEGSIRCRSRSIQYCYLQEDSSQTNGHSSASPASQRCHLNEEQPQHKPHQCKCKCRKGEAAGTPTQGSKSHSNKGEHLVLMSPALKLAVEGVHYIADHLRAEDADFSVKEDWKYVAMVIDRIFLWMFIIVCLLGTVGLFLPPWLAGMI

As for `CCN1/C(=C/C=C/C2=[N+](CCCCCC(=O)NCCCC(=O)OCC[N+](C)(C)C)c3ccc(S(=O)(=O)[O-])cc3C2(C)C)C(C)(C)c2cc(S(=O)(=O)[O-])ccc21`, the result in the experiment on Tetronarce californica [1] and with Tetronarce californica [3] was Active. For the same compound, the T1/2 in experiment [2] came out at 25 s.
